Measured values: US20240277658A1, “NLRP3 ACTIVATORS FOR USE IN THE TREATMENT OF INFECTIOUS DISEASES OR CANCER BY ACTIVATING NLRP3 INFLAMMASOME” (ALBERT-LUDWIGS-UNIVERSITÄT FREIBURG, priority 2020, published 2024)
Several values for one entry are separate records, joined by “and”; a condition that tells them apart may be missing. Equal values may be shown once. Read-outs that look alike come from different tables or passages of the source.

What was measured:
[1] = tested on: BMDCs; assay: LDH release (lytic cell death, pyroptosis) from LPS-primed BMDCs; assay type: cell-based, mouse; conditions: for Average (% positive control): LDH release; for cytotoxicity at 50 µM / cytotoxicity at 25 µM / cytotoxicity at 75 µM / cytotoxicity at 20 µM / cytotoxicity at 40 µM / cytotoxicity at 80 µM: Mus musculus, BMDC
In short: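 LDH released into medium, detected colorimetrically, served as the pyroptosis read-out in triplicate. LPS-primed (50 ng ml^−1, 3 h) murine bone marrow-derived dendritic cells received test compounds, typically 50 μM, or nigericin (5 μM), R837 or CL097 (100 μM) for 3 hours.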

[2] = target: T1, NLRP3 inflammasome (Mus musculus, UniProt Q8R4B8); assay: IL-1β release from LPS-primed BMDCs (ELISA) as readout of NLRP3 inflammasome activation; assay type: cell-based
T1 construct: endogenous in cells; host or cells: primary mouse bone marrow-derived dendritic cells (BMDCs), LPS-primed
T1 sequence (Q8R4B8 whole entry): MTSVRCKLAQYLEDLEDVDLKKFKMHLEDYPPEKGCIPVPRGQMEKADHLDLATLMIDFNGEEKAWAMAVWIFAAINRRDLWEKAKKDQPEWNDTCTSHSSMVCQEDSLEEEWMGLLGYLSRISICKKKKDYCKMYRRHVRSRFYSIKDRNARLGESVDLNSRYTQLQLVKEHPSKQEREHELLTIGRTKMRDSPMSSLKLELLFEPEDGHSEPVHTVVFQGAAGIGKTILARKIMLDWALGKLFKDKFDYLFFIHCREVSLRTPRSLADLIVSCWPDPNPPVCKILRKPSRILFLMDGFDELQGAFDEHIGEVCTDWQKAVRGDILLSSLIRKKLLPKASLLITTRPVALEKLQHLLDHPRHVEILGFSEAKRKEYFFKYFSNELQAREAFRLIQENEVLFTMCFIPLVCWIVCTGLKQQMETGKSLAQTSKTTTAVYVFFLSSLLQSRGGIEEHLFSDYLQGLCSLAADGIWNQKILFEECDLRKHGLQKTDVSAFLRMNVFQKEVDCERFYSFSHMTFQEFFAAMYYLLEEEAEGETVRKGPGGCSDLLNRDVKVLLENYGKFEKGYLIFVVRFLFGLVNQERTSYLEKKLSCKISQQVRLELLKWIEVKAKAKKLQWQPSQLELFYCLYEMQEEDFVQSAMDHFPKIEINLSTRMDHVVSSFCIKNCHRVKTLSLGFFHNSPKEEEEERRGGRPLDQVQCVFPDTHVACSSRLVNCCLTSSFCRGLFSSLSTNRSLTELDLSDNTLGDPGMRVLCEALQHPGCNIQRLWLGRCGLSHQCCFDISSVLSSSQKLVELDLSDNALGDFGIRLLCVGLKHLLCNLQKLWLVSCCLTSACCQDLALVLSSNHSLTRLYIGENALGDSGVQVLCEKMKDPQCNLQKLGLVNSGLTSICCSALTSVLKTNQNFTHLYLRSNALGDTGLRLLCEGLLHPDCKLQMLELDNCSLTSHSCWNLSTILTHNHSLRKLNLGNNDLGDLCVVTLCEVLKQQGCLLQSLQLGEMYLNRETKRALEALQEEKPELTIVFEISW
In short: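 NLRP3 inflammasome activation was read out as IL-1β released into the supernatant, measured by ELISA. Murine BMDCs were primed with LPS (50 ng ml^−1, 3 hours), then incubated with compounds for 3 hours, with each condition run in three technical replicates. Nigericin at 5 μM acted as the positive control activator, and IL-1β release was also expressed as a percentage of that control.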

[3] = compound 50 μM, positive control nigericin 5 μM
[4] = compound 50 μM, LPS-primed BMDCs, read-out: Average LDH release (% of max.)
[5] = single replicates, compound 50 μM, LPS-primed BMDCs, read-out: LDH release (% of max.)
[6] = IL-1β release, compound 50 μM, positive control nigericin 5 μM
[7] = compound 50 μM, LPS-primed BMDCs
[8] = single replicates, compound 50 μM, LPS-primed BMDCs
[9] = 25 μM, positive control EN22 10 μM
[10] = 50 μM, positive control EN22 10 μM
[11] = 75 μM, positive control EN22 10 μM
[12] = 25 μM, AH series table, read-out: Average LDH release (% of max.)
[13] = 25 μM, individual replicate values, AH series table, read-out: LDH release (% of max.)
[14] = 50 μM, AH series table, read-out: Average LDH release (% of max.)
[15] = 50 μM, individual replicate values, AH series table, read-out: LDH release (% of max.)
[16] = 75 μM, individual replicate values, read-out: LDH release (% of max.)
[17] = 75 μM, read-out: Average LDH release (% of max.)
[18] = 25 μM, individual replicate values, AH series table
[19] = 75 μM, individual replicate values, AH series table
[20] = IL-1β, 25 μM, positive control EN22 10 μM
[21] = IL-1β, 75 μM, positive control EN22 10 μM

Row | Structure (SMILES) | Average (% positive control) [1, 3] [% positive control] | cytotoxicity at 50 µM [1, 4] [%] | cytotoxicity at 50 µM [1, 5] [%] | Average (% positive control) [2, 6] [% positive control] | Average IL-1β [2, 7] [ng/mL] | IL-1β [2, 8] | other results
1 | O=C(NCc1nc(-c2cccs2)no1)Nc1ccccc1 [L01.087, 1-phenyl-3-{[3-(thio-phen-2-yl)-1,2,4-oxadiazol-5-yl]meth-yl}urea] | 9.562 | 7 | 6.79 | 3.589 | 0.257 | 0.237 ng/mL and 0.239 ng/mL and 0.296 ng/mL | 
2 | Cc1ccc(N2C(=O)C(=O)N(Cc3nc(-c4ccsc4)no3)C2=O)cc1 [L01.071, 1-(4-methylphenyl)-3-{[3-(thiophen-3-yl)-1,2,4-oxadiazol-5-yl]-methyl}imidazolidine-2,4,5-trione] | 11.833 | 8.66 | 9.01 | 1.598 | 0.115 | 0.116 ng/mL and 0.097 ng/mL and 0.131 ng/mL | 
3 | Cc1cccc(NC(=O)Nc2ccccc2)c1 [L01.077, 3-(3-methylphenyl)-1-phenylurea] | 7.980 | 5.84 | 5.28 | 1.368 | 0.098 | 0.067 ng/mL and 0.165 ng/mL and 0.062 ng/mL | 
4 | O=C(Nc1cccc(Cl)c1)N1CCOCC1c1nc(-c2cccs2)no1 (stereo not drawn) [L01.090, N-(3-chlorophenyl)-3-[3-(thiophen-2-yl)-1,2,4-oxadiazol-5-yl]morph-oline-4-carboxamide] | 20.610 | 15.1 | 15.3 | 1.044 | 0.075 | 0.079 ng/mL and 0.077 ng/mL and 0.069 ng/mL | 
5 | O=[N+]([O-])c1ccc(NC(=S)Nc2cccc(Cl)c2)c(Cl)c1 [AH2, 1-(2-chloro-4-nitrophenyl)-3-(3-chlorophenyl) thiourea] |  |  |  |  |  |  | Average (% positive control) [1, 9]: 29.680 % positive control; Average (% positive control) [1, 10]: 28.819 % positive control; Average (% positive control) [1, 11]: 33.532 % positive control; cytotoxicity at 25 µM [1, 12]: 22.8%; cytotoxicity at 25 µM [1, 13]: 23.9%; cytotoxicity at 50 µM [1, 14]: 22.1%; cytotoxicity at 50 µM [1, 15]: 22.8%; cytotoxicity at 75 µM [1, 16]: 25.1%; cytotoxicity at 75 µM [1, 17]: 25.8%; Average IL-1β ([2]; 25 μM, AH series table): 0.194 ng/mL and 0.251 ng/mL; IL-1β [2, 18]: 0.197 ng/mL and 0.186 ng/mL and 0.200 ng/mL and 0.280 ng/mL and 0.232 ng/mL and 0.243 ng/mL; Average IL-1β ([2]; 75 μM, AH series table): 0.187 ng/mL; IL-1β [2, 19]: 0.176 ng/ml and 0.193 ng/ml (2×); Average (% positive control) [2, 20]: 1.942 % positive control and 2.514 % positive control; Average (% positive control) [2, 21]: 1.872 % positive control
6 | O=C(Nc1ccccc1)Nc1cccc(NC(=O)NC2CC2)c1 [L01.122, 3-cyclopropyl-1-{3-[(phenylcarbamoyl)-amino]phenyl}urea] | 11.054 | 8.09 | 9.16 | 1.214 | 0.087 | 0.072 ng/mL and 0.093 ng/mL and 0.095 ng/mL | 
7 | O=C(Nc1ccccc1)Nc1ccc(N2CCCC2)cc1 [L01.004, 3-phenyl-1-[4-(pyrrol-idin-1-yl)phenyl]urea] | 23.074 | 16.9 | 15.2 | 19.737 | 1.415 | 1.192 ng/mL and 1.485 ng/mL and 1.567 ng/mL | 
8 | O=C(Nc1ccccc1)Nc1ccc(NC(=O)C(F)F)cc1 [L01.016, 2,2-difluoro-N-{4-[(phenylcarbamoyl)-amino]phenyl}acet-amide] | 17.216 | 12.6 | 11.6 | 10.857 | 0.778 | 0.755 ng/mL and 0.723 ng/mL and 0.857 ng/mL | 
9 | CN(C)Cc1ccc(NC(=O)Nc2ccccc2)cc1 [L01.121, 3-{4-[(dimethylamino)-methyl]phenyl}-1-phen-ylurea] | 11.907 | 8.71 | 7.8 | 0.906 | 0.065 | 0.066 ng/mL and 0.068 ng/mL and 0.060 ng/mL | 
10 | O=C(Nc1ccccc1)Nc1ccc2ncccc2n1 [JB002, 1-(1,5-naphthyridin-2-yl)-3-phenylurea] |  |  |  |  |  |  | Average (% positive control) ([1]; 20 μM, positive control EN22 20 μM): 13.887 % positive control; Average (% positive control) ([1]; 40 μM, positive control EN22 20 μM): 17.760 % positive control; Average (% positive control) ([1]; 80 μM, positive control EN22 20 μM): 30.084 % positive control; cytotoxicity at 20 µM ([1]; 20 μM, individual replicate values, read-out: LDH release (% of max.)): 7.72%; cytotoxicity at 20 µM ([1]; 20 μM, read-out: Average LDH release (% of max.)): 7.4%; cytotoxicity at 40 µM ([1]; 40 μM, individual replicate values, read-out: LDH release (% of max.)): 9.38%; cytotoxicity at 40 µM ([1]; 40 μM, read-out: Average LDH release (% of max.)): 9.46%; cytotoxicity at 80 µM ([1]; 80 μM, individual replicate values, read-out: LDH release (% of max.)): 14%; cytotoxicity at 80 µM ([1]; 80 μM, read-out: Average LDH release (% of max.)): 16%; Average IL-1β ([2]; 20 μM): 0.045 ng/mL; IL-1β ([2]; 20 μM, individual replicate values): 0.038 ng/mL and 0.050 ng/mL and 0.047 ng/mL; Average IL-1β ([2]; 40 μM): 0.192 ng/mL; IL-1β ([2]; 40 μM, individual replicate values): 0.190 ng/mL and 0.197 ng/mL and 0.1902 ng/mL; Average IL-1β ([2]; 80 μM): 0.503 ng/mL; IL-1β ([2]; 80 μM, individual replicate values): 0.464 ng/mL and 0.505 ng/mL and 0.540 ng/mL; Average (% positive control) ([2]; IL-1β, 20 μM, positive control EN22): 2.292 % positive control; Average (% positive control) ([2]; IL-1β, 40 μM, positive control EN22): 9.827 % positive control; Average (% positive control) ([2]; IL-1β, 80 μM, positive control EN22): 25.697 % positive control
11 | Cc1ccc(N2C(=O)N(Cc3nc(-c4ccc(F)cc4)no3)C(=O)C2C)cc1 (stereo not drawn) [L01.130, 3-{[3-(4-fluorophenyl)-1,2,4-oxadiazol-5-yl]-methyl}-5-methyl-1-(4-methylphenyl)imidazol-idine-2,4-dione] | 11.646 | 8.52 | 9.39 | 4.350 | 0.312 | 0.404 ng/mL and 0.317 ng/mL and 0.215 ng/mL | 
12 | O=C(Nc1ccccc1)Nc1ccc(NC(=O)C2CCCC2)cc1 [L01.104, N-{4-[(phenylcarbamo-yl)amino]phenyl}cyclo-pentanecarboxamide] | 24.873 | 18.2 | 17.2 | 16.230 | 1.163 | 1.103 ng/mL and 1.142 ng/mL and 1.246 ng/mL | 
13 | O=C(Nc1cc(Cl)cc(Cl)c1)Nc1ccc([N+](=O)[O-])cc1Cl [AH1, 1-(2-chloro-4-nitrophenyl)-3-(3,5-dichlorophenyl) urea] |  |  |  |  |  |  | Average (% positive control) [1, 9]: 53.499 % positive control; Average (% positive control) [1, 10]: 74.390 % positive control; Average (% positive control) [1, 11]: 78.340 % positive control; cytotoxicity at 25 µM [1, 12]: 41.1%; cytotoxicity at 25 µM [1, 13]: 42.1%; cytotoxicity at 50 µM [1, 14]: 57.1%; cytotoxicity at 50 µM [1, 15]: 55.7%; cytotoxicity at 75 µM [1, 16]: 60.7%; cytotoxicity at 75 µM [1, 17]: 60.2%; Average IL-1β ([2]; 25 μM, AH series table): 1.177 ng/mL; IL-1β [2, 18]: 1.140 ng/mL and 1.156 ng/mL and 1.234 ng/mL; Average IL-1β ([2]; 50 μM, AH series table): 1.578 ng/mL; IL-1β ([2]; 50 μM, individual replicate values, AH series table): 1.533 ng/mL and 1.609 ng/mL and 1.592 ng/mL; Average IL-1β ([2]; 75 μM, AH series table): 1.533 ng/mL; IL-1β [2, 19]: 1.619 ng/mL and 1.382 ng/mL and 1.598 ng/mL; Average (% positive control) [2, 20]: 11.766 % positive control; Average (% positive control) ([2]; IL-1β, 50 μM, positive control EN22 10 μM): 15.776 % positive control; Average (% positive control) [2, 21]: 15.328 % positive control
14 | CC(C)C(NC(=O)Nc1ccc2c(c1)COC2)c1nc(-c2cccnc2)no1 (stereo not drawn) [L01.114, 3-(1,3-dihydro-2-benzo-furan-5-yl)-1-{2-meth-yl-1-[3-(pyridin-3-yl)-1,2,4-oxadiazol-5-yl]-propyl}urea] | 12.801 | 9.37 | 9.46 | 1.049 | 0.075 | 0.073 ng/mL and 0.081 ng/mL and 0.072 ng/mL | 
